Experimental data taken from US20150335657A1, “Methods for Modulating Sirtuin Enzymes” (The Trustees of Princeton University, priority 2014, published 2015).

Key:
[1] = test system: human cytomegalovirus (HCMV) AD169 strain; assay: Antiviral activity against HCMV in MRC5 fibroblasts (virus yield, fluorescent focus assay); format: cell-based; details: Human betaherpesvirus 5, HCMV AD169, 1 infectious unit/cell, treated 2 h after infection, virus in medium at 96 h
[2] = Tetrazolium-based cell viability assay (cytotoxicity); details: human
[3] = target: T1, SIRT3 (Homo sapiens, UniProt Q9NTG7); assay: Sirtuin deacetylase enzyme activity assay (Cayman Chemical), compound screen; format: biochemical; details: compound at 50 μM; Z-score of change in fluorescent signal; + increase, − decrease
T1 construct: purchased Cayman Chemical
T1 sequence (Q9NTG7 1-399): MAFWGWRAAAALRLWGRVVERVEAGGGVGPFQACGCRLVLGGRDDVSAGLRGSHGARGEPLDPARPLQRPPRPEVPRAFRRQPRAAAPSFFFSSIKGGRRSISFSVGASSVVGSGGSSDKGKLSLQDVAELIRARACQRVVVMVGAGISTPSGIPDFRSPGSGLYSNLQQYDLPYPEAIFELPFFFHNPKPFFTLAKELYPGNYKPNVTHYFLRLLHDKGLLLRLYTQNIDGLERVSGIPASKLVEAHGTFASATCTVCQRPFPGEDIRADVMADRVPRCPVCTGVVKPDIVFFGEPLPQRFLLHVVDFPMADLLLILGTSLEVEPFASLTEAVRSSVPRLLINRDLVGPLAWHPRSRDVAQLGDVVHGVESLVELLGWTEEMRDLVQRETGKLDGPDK
Source text: (§1) Sirtuins have been identified as innate viral restriction factors and it has been previously shown that drugs that modulate the activity of these enzymes block the production of multiple viruses in culture (see, e.g., WO 2012/106509). Sirtuins are NAD-dependent enzymes that regulate the activity of target proteins by post-translational modifications and thereby control key cellular events (see, e.g., Haigis and Sinclair (2010) Ann Rev Pathol Mech Dis 5:253-95). SIRT1, SIRT2, SIRT3 and SIRT6 have shown a detectable deacetylase activity in well-established biochemical assays that utilize recombinant SIRT1, SIRT2, SIRT3, and SIRT6 enzymes and fluorophore-conjugated acetyl-peptides. As described in the Examples below, the deacetylase activity of these sirtuins were used as a surrogate to identify compounds having broad-range antiviral activity.
(§2) A publically disclosed, small molecule library consisting of approximately 13,000 compounds was screened using a commercially available (Cayman Chemical) enzyme activity assay. Deacetylase activity of sirtuins SIRT1, SIRT2, SIRT3, and SIRT6 was used as a surrogate to identify compounds with the potential for having broad-range antiviral activity. The compounds were tested at a single concentration (50 μM) in microtiter plates and their activity against the four sirtuins was recorded as a change in fluorescent signal intensity. […] Activation of sirtuin activity generated positive Z-scores and inhibition of sirtuin activity produced negative Z-scores.

[4] = target: T2, SIRT1 (Homo sapiens, UniProt Q96EB6); assay: as above; format: biochemical; details: compound at 50 μM; Z-score of change in fluorescent signal; + increase, − decrease
T2 construct: purchased Cayman Chemical
T2 sequence (Q96EB6 1-747): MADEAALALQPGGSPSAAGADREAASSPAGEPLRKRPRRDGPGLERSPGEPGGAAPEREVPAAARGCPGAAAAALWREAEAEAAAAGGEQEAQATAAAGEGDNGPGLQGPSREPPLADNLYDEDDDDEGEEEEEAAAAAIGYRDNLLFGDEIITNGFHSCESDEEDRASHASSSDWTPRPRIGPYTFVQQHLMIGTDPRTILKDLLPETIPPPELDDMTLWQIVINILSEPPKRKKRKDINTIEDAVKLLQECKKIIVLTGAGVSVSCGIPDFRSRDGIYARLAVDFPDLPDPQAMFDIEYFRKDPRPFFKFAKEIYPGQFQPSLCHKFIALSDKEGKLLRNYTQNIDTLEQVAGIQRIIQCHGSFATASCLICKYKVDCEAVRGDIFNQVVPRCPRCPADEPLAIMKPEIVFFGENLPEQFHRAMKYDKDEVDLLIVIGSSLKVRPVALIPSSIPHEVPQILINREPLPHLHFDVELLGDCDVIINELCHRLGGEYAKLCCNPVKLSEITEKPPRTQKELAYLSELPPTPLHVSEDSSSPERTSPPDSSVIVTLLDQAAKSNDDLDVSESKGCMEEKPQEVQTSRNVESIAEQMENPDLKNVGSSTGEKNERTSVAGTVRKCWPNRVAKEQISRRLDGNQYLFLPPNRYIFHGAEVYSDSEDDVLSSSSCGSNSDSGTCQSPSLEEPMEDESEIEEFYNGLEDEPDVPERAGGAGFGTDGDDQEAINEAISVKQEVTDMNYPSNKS
Source text: as §1, §2

[5] = target: T3, SIRT2 (Homo sapiens, UniProt Q8IXJ6); assay: as above; format: biochemical; details: compound at 50 μM; Z-score of change in fluorescent signal; + increase, − decrease
T3 construct: purchased Cayman Chemical
T3 sequence (Q8IXJ6 1-389): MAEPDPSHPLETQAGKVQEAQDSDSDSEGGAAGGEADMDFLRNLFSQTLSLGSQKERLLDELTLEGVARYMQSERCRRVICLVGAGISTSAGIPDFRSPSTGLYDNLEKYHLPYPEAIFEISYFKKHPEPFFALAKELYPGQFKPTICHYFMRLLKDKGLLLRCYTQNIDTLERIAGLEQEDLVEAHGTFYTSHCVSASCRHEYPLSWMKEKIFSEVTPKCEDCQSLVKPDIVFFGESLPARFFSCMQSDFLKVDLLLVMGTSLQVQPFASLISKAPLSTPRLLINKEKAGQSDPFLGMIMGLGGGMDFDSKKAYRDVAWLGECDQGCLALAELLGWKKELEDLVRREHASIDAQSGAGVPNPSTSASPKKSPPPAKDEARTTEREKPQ
Source text: as §1, §2

[6] = target: T4, SIRT6 (Homo sapiens, UniProt Q8N6T7); assay: as above; format: biochemical; details: compound at 50 μM; Z-score of change in fluorescent signal; + increase, − decrease
T4 construct: purchased Cayman Chemical
Source text: as §1, §2

T4 sequence (Q8N6T7 whole entry): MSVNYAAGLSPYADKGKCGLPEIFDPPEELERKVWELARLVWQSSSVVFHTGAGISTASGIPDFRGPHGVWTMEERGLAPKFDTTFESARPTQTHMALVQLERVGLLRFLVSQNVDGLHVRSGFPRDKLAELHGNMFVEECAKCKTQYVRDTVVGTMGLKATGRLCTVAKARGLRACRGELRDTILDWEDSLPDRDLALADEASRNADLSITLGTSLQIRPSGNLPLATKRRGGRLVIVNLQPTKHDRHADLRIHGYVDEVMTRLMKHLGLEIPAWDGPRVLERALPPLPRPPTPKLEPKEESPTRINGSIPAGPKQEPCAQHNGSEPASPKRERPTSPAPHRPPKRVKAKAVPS

SMILES: CC(c1cnc2ccccc2c1)C(F)C1N(Cc2ccccc2)C(=O)c2cccnc2N1C (stereo not drawn)
- IC50 [1]: 1.74 µM
- IC90 [1]: 16.1 µM
- CC50 at 96 h [2]: > 50 µM
- SIRT3 (change in sirtuin deacetylase activity, Z-score class) [3]: +++ (Z-score ≧ 3 = +++)
- SIRT1 (change in sirtuin deacetylase activity, Z-score class) [4]: +++ (Z-score ≧ 3 = +++)
- SIRT2 (change in sirtuin deacetylase activity, Z-score class) [5]: +++ (Z-score ≧ 3 = +++)
- SIRT6 (change in sirtuin deacetylase activity, Z-score class) [6]: +++ (Z-score ≧ 3 = +++)

SMILES: CC(c1ccccc1Cl)C1CN(C2CCC(O)CC2)S(=O)(=O)c2c(F)cccc2O1 (stereo not drawn)
- IC50 [1]: 2.33 µM
- IC90 [1]: 31.3 µM
- CC50 at 96 h [2]: > 50 µM
- SIRT3 (change in sirtuin deacetylase activity, Z-score class) [3]: na (−2 ≦ Z-score < 2 = no activity (na))
- SIRT1 (change in sirtuin deacetylase activity, Z-score class) [4]: na (−2 ≦ Z-score < 2 = no activity (na))
- SIRT2 (change in sirtuin deacetylase activity, Z-score class) [5]: na (−2 ≦ Z-score < 2 = no activity (na))
- SIRT6 (change in sirtuin deacetylase activity, Z-score class) [6]: +++ (Z-score ≧ 3 = +++)

SMILES: CC(c1ccc2nccnc2c1)c1cnc(N2CCc3ccccc3C2)s1 (stereo not drawn)
- IC50 [1]: 4.58 µM
- IC90 [1]: 5.95 µM
- CC50 at 96 h [2]: > 50 µM
- SIRT3 (change in sirtuin deacetylase activity, Z-score class) [3]: na (−2 ≦ Z-score < 2 = no activity (na))
- SIRT1 (change in sirtuin deacetylase activity, Z-score class) [4]: −− (−3 < Z-score ≦ −2 = −−)
- SIRT2 (change in sirtuin deacetylase activity, Z-score class) [5]: −− (−3 < Z-score ≦ −2 = −−)
- SIRT6 (change in sirtuin deacetylase activity, Z-score class) [6]: na (−2 ≦ Z-score < 2 = no activity (na))

SMILES: CC(c1cnc2ccccc2c1)C(F)CNc1cnc2ccccc2c1 (stereo not drawn)
- IC50 [1]: 6.89 µM
- IC90 [1]: 17.6 µM
- CC50 at 96 h [2]: > 50 µM
- SIRT3 (change in sirtuin deacetylase activity, Z-score class) [3]: na (−2 ≦ Z-score < 2 = no activity (na))
- SIRT1 (change in sirtuin deacetylase activity, Z-score class) [4]: na (−2 ≦ Z-score < 2 = no activity (na))
- SIRT2 (change in sirtuin deacetylase activity, Z-score class) [5]: na (−2 ≦ Z-score < 2 = no activity (na))
- SIRT6 (change in sirtuin deacetylase activity, Z-score class) [6]: +++ (Z-score ≧ 3 = +++)

SMILES: CCOc1cc(C)n(C(CNc2cnc3ccccc3c2)C(C)c2cccnc2C)n1 (stereo not drawn)
- IC50 [1]: 8.26 µM
- IC90 [1]: 33.9 µM
- CC50 at 96 h [2]: > 50 µM
- SIRT3 (change in sirtuin deacetylase activity, Z-score class) [3]: +++ (Z-score ≧ 3 = +++)
- SIRT1 (change in sirtuin deacetylase activity, Z-score class) [4]: ++ (2 ≦ Z-score < 3 = ++)
- SIRT2 (change in sirtuin deacetylase activity, Z-score class) [5]: ++ (2 ≦ Z-score < 3 = ++)
- SIRT6 (change in sirtuin deacetylase activity, Z-score class) [6]: +++ (Z-score ≧ 3 = +++)

SMILES: Cc1cc(-c2ccccc2)nn1C1CN(Cc2cccc(C(F)(F)F)c2)C(=O)C1C(C)C (stereo not drawn)
- IC50 [1]: 8.43 µM
- IC90 [1]: 18.8 µM
- CC50 at 96 h [2]: 25 to 50 µM
- SIRT3 (change in sirtuin deacetylase activity, Z-score class) [3]: na (−2 ≦ Z-score < 2 = no activity (na))
- SIRT1 (change in sirtuin deacetylase activity, Z-score class) [4]: ++ (2 ≦ Z-score < 3 = ++)
- SIRT2 (change in sirtuin deacetylase activity, Z-score class) [5]: na (−2 ≦ Z-score < 2 = no activity (na))
- SIRT6 (change in sirtuin deacetylase activity, Z-score class) [6]: ++ (2 ≦ Z-score < 3 = ++)

SMILES: CCOc1cc(C(C)C)n(C(CNc2cnc3ccccc3c2)C(C)c2cccnc2C)n1 (stereo not drawn)
- IC50 [1]: 9.32 µM
- IC90 [1]: 41.3 µM
- CC50 at 96 h [2]: > 50 µM
- SIRT3 (change in sirtuin deacetylase activity, Z-score class) [3]: +++ (Z-score ≧ 3 = +++)
- SIRT1 (change in sirtuin deacetylase activity, Z-score class) [4]: +++ (Z-score ≧ 3 = +++)
- SIRT2 (change in sirtuin deacetylase activity, Z-score class) [5]: na (−2 ≦ Z-score < 2 = no activity (na))
- SIRT6 (change in sirtuin deacetylase activity, Z-score class) [6]: +++ (Z-score ≧ 3 = +++)

SMILES: CC(c1ccncc1)C(O)Cn1cc(-c2cc(Cl)cnc2N)nn1 (stereo not drawn)
- IC50 [1]: 9.71 µM
- IC90 [1]: 33.8 µM
- CC50 at 96 h [2]: > 50 µM
- SIRT3 (change in sirtuin deacetylase activity, Z-score class) [3]: ++ (2 ≦ Z-score < 3 = ++)
- SIRT1 (change in sirtuin deacetylase activity, Z-score class) [4]: +++ (Z-score ≧ 3 = +++)
- SIRT2 (change in sirtuin deacetylase activity, Z-score class) [5]: na (−2 ≦ Z-score < 2 = no activity (na))
- SIRT6 (change in sirtuin deacetylase activity, Z-score class) [6]: +++ (Z-score ≧ 3 = +++)

SMILES: CCCN1CC(C(C)c2ccccc2OC)N(c2cccnc2)C1=O (stereo not drawn)
- IC50 [1]: 9.91 µM
- IC90 [1]: 32.2 µM
- CC50 at 96 h [2]: > 50 µM
- SIRT3 (change in sirtuin deacetylase activity, Z-score class) [3]: na (−2 ≦ Z-score < 2 = no activity (na))
- SIRT1 (change in sirtuin deacetylase activity, Z-score class) [4]: na (−2 ≦ Z-score < 2 = no activity (na))
- SIRT2 (change in sirtuin deacetylase activity, Z-score class) [5]: na (−2 ≦ Z-score < 2 = no activity (na))
- SIRT6 (change in sirtuin deacetylase activity, Z-score class) [6]: +++ (Z-score ≧ 3 = +++)

SMILES: CNC(=O)c1cccc(CN(CCC(C)C(C)C)S(=O)(=O)c2c(C)noc2C)c1 (stereo not drawn)
- IC50 [1]: 10.2 µM
- IC90 [1]: 32.8 µM
- CC50 at 96 h [2]: 25 to 50 µM
- SIRT3 (change in sirtuin deacetylase activity, Z-score class) [3]: na (−2 ≦ Z-score < 2 = no activity (na))
- SIRT1 (change in sirtuin deacetylase activity, Z-score class) [4]: na (−2 ≦ Z-score < 2 = no activity (na))
- SIRT2 (change in sirtuin deacetylase activity, Z-score class) [5]: na (−2 ≦ Z-score < 2 = no activity (na))
- SIRT6 (change in sirtuin deacetylase activity, Z-score class) [6]: +++ (Z-score ≧ 3 = +++)

SMILES: Cc1nn(C2CN(CCn3ccnc3)C(=O)C2c2ccccc2)c(C)c1C (stereo not drawn)
- IC50 [1]: 11 µM
- IC90 [1]: 38.5 µM
- CC50 at 96 h [2]: > 50 µM
- SIRT3 (change in sirtuin deacetylase activity, Z-score class) [3]: −−− (Z-score ≦ −3 = −−−)
- SIRT1 (change in sirtuin deacetylase activity, Z-score class) [4]: −−− (Z-score ≦ −3 = −−−)
- SIRT2 (change in sirtuin deacetylase activity, Z-score class) [5]: −−− (Z-score ≦ −3 = −−−)
- SIRT6 (change in sirtuin deacetylase activity, Z-score class) [6]: na (−2 ≦ Z-score < 2 = no activity (na))

SMILES: CNC(=O)c1cccc(CN(CCC(C)C(C)C)S(=O)(=O)c2cn(C)cn2)c1 (stereo not drawn)
- IC50 [1]: 13.4 µM
- IC90 [1]: 41.8 µM
- CC50 at 96 h [2]: > 50 µM
- SIRT3 (change in sirtuin deacetylase activity, Z-score class) [3]: na (−2 ≦ Z-score < 2 = no activity (na))
- SIRT1 (change in sirtuin deacetylase activity, Z-score class) [4]: na (−2 ≦ Z-score < 2 = no activity (na))
- SIRT2 (change in sirtuin deacetylase activity, Z-score class) [5]: ++ (2 ≦ Z-score < 3 = ++)
- SIRT6 (change in sirtuin deacetylase activity, Z-score class) [6]: na (−2 ≦ Z-score < 2 = no activity (na))
